Our source for the GI50 and TGI values is PubChem BioAssay (NCI).

Test systems include A549 NSCLC; CAKI-1 renal; K-562 leukemia; KM12 colon; LOX IMVI melanoma; MCF7 breast; NCI-H460 lung; SK-MEL-5 melanoma; SNB-19 CNS; T-47D breast.
What all share (assay): inhibition of tumour cell growth, NCI panel, 48 h

Several values for one entry are separate records, joined by “and”; a condition that tells them apart may be missing. Equal values may be shown once.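 Briefly, cells in 96-well plates were exposed to five compound concentrations for 48 h, and endpoints were estimated by linear interpolation. The concentration for 50% growth inhibition is given as GI50. TGI marks complete inhibition of growth.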

Consider `COC(=O)c1cc2oc(/C=C3/SC(=S)N(N)C3=O)cc2n1Cc1ccccc1`, for which the GI50 with A549 NSCLC is 5.12 µM; in the assay with CAKI-1 renal, 2.98 µM; in the assay with K-562 leukemia, 2.08 µM; with KM12 colon, 6.05 µM; in the assay on LOX IMVI melanoma, 2.61 µM; in the assay on MCF7 breast, 1.5 µM. Besides, the GI50 in the assay with NCI-H460 lung was 3.02 µM; in the assay with SK-MEL-5 melanoma it was 1.99 µM; in the assay on SNB-19 CNS it was 5.79 µM; in the assay with T-47D breast it was 3.33 µM. Moreover, the TGI with A549 NSCLC is 33.1 µM; in the assay on CAKI-1 renal it was 20.6 µM; in the assay on K-562 leukemia, more than 21.7 µM; with KM12 colon it was more than 29.7 µM; with LOX IMVI melanoma, 16 µM; in the assay with MCF7 breast it was 6.93 µM. Further, the TGI was determined as 11.6 µM in the assay with NCI-H460 lung, 7.03 µM in the assay with SK-MEL-5 melanoma, 35.2 µM with SNB-19 CNS and 10.1 µM in the assay with T-47D breast.
On to `CCCCCCn1c(SC)nc(COC(=O)NC)c1COC(=O)NC`, for which the TGI in the assay with A549 NSCLC was 31.5 µM; with CAKI-1 renal, 29.1 µM; in the assay with K-562 leukemia it was more than 100 µM; in the assay on KM12 colon, 32.6 µM; with LOX IMVI melanoma, more than 100 µM; with MCF7 breast, 38 µM. The TGI amounted to 37.3 µM with NCI-H460 lung, 30.3 µM with SK-MEL-5 melanoma, 29.8 µM in the assay with SNB-19 CNS and 35 µM in the assay on T-47D breast.
With `O=c1cnnc(N/N=C/c2ccccc2O)[nH]1`, the GI50 was 1.55 µM in the assay on A549 NSCLC; 3.01 µM in the assay with CAKI-1 renal; 0.163 µM in the assay on K-562 leukemia; 2.85 µM with KM12 colon; 1.07 µM in the assay on LOX IMVI melanoma; 0.0396 µM with MCF7 breast. Also, the GI50 in the assay with NCI-H460 lung is 1.56 µM; in the assay with SK-MEL-5 melanoma it was 1.25 µM; in the assay on SNB-19 CNS, 6.41 µM; in the assay on T-47D breast it was 0.0656 µM. Further, the TGI was more than 100 µM in the assay on A549 NSCLC; more than 100 µM with CAKI-1 renal; more than 100 µM with K-562 leukemia; more than 100 µM in the assay with KM12 colon; more than 48.2 µM in the assay with LOX IMVI melanoma; more than 100 µM in the assay on NCI-H460 lung. In addition, the values for the TGI with SK-MEL-5 melanoma, with SNB-19 CNS and with T-47D breast were more than 39.6 µM, more than 100 µM and more than 100 µM, respectively.
Regarding `Cn1cc(-c2nc(-c3c[nH]c4ncccc34)cs2)c2ccccc21`, the GI50 was 26.6 µM with A549 NSCLC; 25.5 µM with CAKI-1 renal; 4.48 µM in the assay with K-562 leukemia; 0.975 µM in the assay with KM12 colon; 24.5 µM in the assay on LOX IMVI melanoma; 0.401 µM in the assay on MCF7 breast. Also, the GI50 in the assay with NCI-H460 lung was 1.27 µM; with SK-MEL-5 melanoma, 0.595 µM; with SNB-19 CNS it was 71.4 µM; with T-47D breast, 0.414 µM. For the same compound, the TGI with A549 NSCLC was more than 100 µM; with CAKI-1 renal, more than 100 µM; with K-562 leukemia it was more than 100 µM; in the assay with KM12 colon it was 26.7 µM; in the assay on LOX IMVI melanoma, more than 100 µM; with MCF7 breast, 26.1 µM. Also, the TGI in the assay on NCI-H460 lung was more than 100 µM; in the assay on SK-MEL-5 melanoma, more than 100 µM; in the assay with SNB-19 CNS, more than 100 µM; with T-47D breast it was 26.9 µM.
`CC1(C)N=C(N)N=C(N)N1c1ccc(Cl)cc1`: the GI50 is 1.25 µM in the assay with A549 NSCLC; more than 100 µM in the assay on CAKI-1 renal; 1.3 µM with K-562 leukemia; 6.68 µM with KM12 colon; 2.85 µM in the assay with LOX IMVI melanoma; 4.88 µM in the assay on MCF7 breast. In addition, the GI50 with NCI-H460 lung is 2.82 µM; in the assay with SK-MEL-5 melanoma, 3.99 µM; in the assay on SNB-19 CNS, 16.7 µM; in the assay with T-47D breast, more than 100 µM. Also, the TGI with A549 NSCLC, with CAKI-1 renal, in the assay with K-562 leukemia, in the assay on KM12 colon, with LOX IMVI melanoma and in the assay with MCF7 breast was more than 100 µM throughout. The TGI in the assay with NCI-H460 lung, in the assay on SK-MEL-5 melanoma, in the assay with SNB-19 CNS and with T-47D breast was more than 100 µM throughout.
In the case of `CC(C)(C)c1cc(NC(=O)Nc2ccc(-c3cn4c(n3)sc3cc(OCCN5CCOCC5)ccc34)cc2)no1`, the GI50 in the assay with A549 NSCLC was 3.93 µM and 1.48 µM and 6.89 µM; with CAKI-1 renal, 10.9 µM and 2.6 µM and 6.93 µM; in the assay with KM12 colon it was 0.532 µM and 0.496 µM and 0.438 µM; with LOX IMVI melanoma, 5.86 µM and 0.928 µM and 5.07 µM; in the assay on MCF7 breast, 2.04 µM and 0.357 µM and 1.41 µM; in the assay with NCI-H460 lung, 3.72 µM and 0.657 µM and 4.56 µM. Also, the GI50 was 3.81 µM and 0.985 µM and 1.97 µM with SK-MEL-5 melanoma; 3.46 µM and 1.71 µM and 4.26 µM with SNB-19 CNS; 0.0864 µM and 0.107 µM and 0.223 µM in the assay with T-47D breast. Also, the TGI in the assay with A549 NSCLC is 19.5 µM and 13.8 µM and > 10 µM; in the assay on CAKI-1 renal, 31.9 µM and 15.3 µM and > 10 µM; in the assay on K-562 leukemia, 11.9 µM and > 10 µM; with KM12 colon, 27.3 µM and 14.6 µM and > 10 µM; in the assay with LOX IMVI melanoma, 30.1 µM and 8.21 µM and > 10 µM; in the assay on MCF7 breast, 23.3 µM and 13.3 µM and > 10 µM. Further, the TGI is 16.1 µM and 10.4 µM and > 10 µM in the assay with NCI-H460 lung; 18.2 µM and 3.31 µM and > 10 µM in the assay with SK-MEL-5 melanoma; 20.3 µM and 17.1 µM and > 10 µM in the assay with SNB-19 CNS.
In the case of `C/C(=N\OCC(O)CNCCSCc1ccccc1)c1ccccc1Cl` (configuration not stated), the TGI stood at 45.6 µM in the assay on A549 NSCLC; 34.6 µM in the assay with CAKI-1 renal; 92.9 µM in the assay with K-562 leukemia; 40.2 µM with KM12 colon; 36.5 µM in the assay on LOX IMVI melanoma; 44.6 µM in the assay on MCF7 breast. Moreover, the TGI in the assay with NCI-H460 lung worked out at 52.3 µM; in the assay with SK-MEL-5 melanoma, 33.4 µM; in the assay with SNB-19 CNS, 39.7 µM; with T-47D breast it was 48.6 µM.
On to `CC(C)[C@@](O)(c1ccc2cc(OC(F)F)c(OC(F)F)cc2c1)c1cn[nH]n1`, for which the GI50 was 17.6 µM in the assay with A549 NSCLC; 14.6 µM in the assay on CAKI-1 renal; 19.3 µM in the assay on K-562 leukemia; 17.5 µM in the assay with KM12 colon; 15.8 µM in the assay with LOX IMVI melanoma; 16.6 µM in the assay on MCF7 breast. Moreover, the GI50 is 18 µM in the assay with NCI-H460 lung, 14.4 µM in the assay on SK-MEL-5 melanoma, 20.8 µM in the assay on SNB-19 CNS and 13.4 µM in the assay with T-47D breast. The TGI in the assay with A549 NSCLC was found to be 38.7 µM; in the assay on CAKI-1 renal, 38.2 µM; in the assay with K-562 leukemia, 55.3 µM; in the assay with KM12 colon, 39.2 µM; in the assay on LOX IMVI melanoma it was 29.2 µM; with MCF7 breast it was 37.7 µM. Besides, the TGI is 37.4 µM with NCI-H460 lung, 27.5 µM in the assay on SK-MEL-5 melanoma, 51.2 µM in the assay with SNB-19 CNS and 53.1 µM in the assay on T-47D breast.
On to `N/N=C(\c1nc2ccc([N+](=O)[O-])cc2[nH]c1=O)C(O)c1ccc(Cl)c(Cl)c1` (configuration not stated), for which the TGI in the assay on A549 NSCLC, in the assay on CAKI-1 renal, with K-562 leukemia, with KM12 colon, in the assay with LOX IMVI melanoma and with MCF7 breast was more than 100 µM throughout. Moreover, the TGI in the assay with NCI-H460 lung, with SK-MEL-5 melanoma, with SNB-19 CNS and in the assay with T-47D breast was more than 100 µM each time.
